{"source": "patent US7202239B2", "about": "“Cyclohexylphenyl carboxamides tocolytic oxytocin receptor antagonists” (Wyeth, priority 2001, dated 2007)", "data": [{"molecular_target": "human V2 vasopressin receptor subtype (Homo sapiens, UniProt P30518)", "sequence (P30518 whole entry)": "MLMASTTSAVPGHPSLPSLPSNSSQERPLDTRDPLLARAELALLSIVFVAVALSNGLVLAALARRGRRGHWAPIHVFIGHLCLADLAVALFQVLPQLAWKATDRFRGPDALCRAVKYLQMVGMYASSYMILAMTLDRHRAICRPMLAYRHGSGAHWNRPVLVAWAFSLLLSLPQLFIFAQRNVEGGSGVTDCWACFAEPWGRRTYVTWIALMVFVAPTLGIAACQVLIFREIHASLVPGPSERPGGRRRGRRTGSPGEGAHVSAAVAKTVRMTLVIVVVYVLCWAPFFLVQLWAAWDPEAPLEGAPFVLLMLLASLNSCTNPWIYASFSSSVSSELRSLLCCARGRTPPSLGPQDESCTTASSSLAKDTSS", "experiment": "Vasopressin binding in CHO cell membranes expressing human vasopressin V2 subtype receptors", "settings": "100 nM, [3H]arginine vasopressin", "description": "(§1) Vasopressin Binding in Chinese Hamster Ovary Cell Membranes Expressing Human Vasopressin V2 Subtype Receptors\n(§2) Chinese Hamster Ovary (CHO) cells stably transfected with the human V2 subtype receptors were obtained from M. Thibonnier, Case Western Reserve University School of Medicine, Cleveland, Ohio.\n(§3) A. Passaging and Amplification of Cells:\n(§4) CHO cells transfected with the human vasopressin V2 subtype receptors obtained from M. Thibonnier (pZeoSV vector) are allowed to grow to confluency (approx. >90%) in T-150 flasks under sterile conditions, in a cell culture medium of F-12 Nutrient Mixture (HAM) with L-glutamine (Gibco Cat. # 11765-054) containing 15 mM HEPES (Gibco Cat. # 15630-080), 1% antibiotic/antimycotic (add 5 mL 100×, Gibco Cat. # 15240-062 per 500 mL F-12), 250 μg/mL Zeocin (add 1.25 mL of 100 mg/mL Invitrogen R-250-01 per 500 mL F-12) and 10% Fetal Bovine Serum (Qualified, heat inactivated, Gibco Cat. # 16140-063). The medium is removed by aspiration and the cells washed with 10 mL of Hank's Balanced Salt solution (Gibco Cat. # 14175-095). The salt solution is removed by aspiration and the cells trypsinized with 5 mL of trypsin-EDTA (0.05% trypsin, 0.53 mM EDTA-4Na, Gibco Cat. # 25300-070) for 1 min. The trypsin is removed by aspiration and the cells dislodged by tapping. Cell Culture medium (e.g. 30 mL for 1:30 split) is immediately added and mixed well to inactivate trypsin. 1 mL of detached cells is added to new culture flasks containing fresh Cell Culture medium (e.g. into 25 mL per T-150 flask), and mixed gently. The cells are incubated at 37° C. in 5% CO2. The medium is changed at 3 to 4 day interval (or as appropriate). The cells grow to confluency (approx. >75%–95%) within 7–8 days. All steps are done under sterile conditions. B. Membrane Preparation: The cells are washed twice gently with Hank's Balanced Salt solution (e.g. use 10 mL per T-150 flask). The excess solution is removed and the cells bathed for 15–30 min. in an enzyme-free Cell Dissociation Buffer (e.g. use 8 mL Hank's Based, Gibco Cat. # 13150-016 per T-150 flask) until cells are loosened. The contents are transferred to centrifuge tubes (50 mL) kept in an ice bath. All subsequent steps are done at 4° C. The tubes are centrifuged at 300× g for 15 min (1380 rpm on SORVAL, Model RT6000D, using the rotor for 50 mL tubes). The supernatant is discarded and the cells suspended in homogeneizing buffer(10 mM Tris-HCl containing 0.25 M sucrose and 1 mM EDTA, pH 7.4) ensuring that the volume of the buffer is about ten times the volume of the cell pellet. The cells are pooled into a centrifuge tube (50 mL) and homogenized with a Polytron at setting 6 for 10 sec. The homogenate is transferred into a Potter-Elvjehm homogeneizer and homogenized with 3 strokes. The homogenate is centrifuged at 1500×g for 60 min at 4° C. (3100 rpm using SORVAL, model RT6000D, using the rotor for 50 mL tubes). The pellet is discarded. The supernatant is centrifuged at 100,000×g for 60 min. at 4° C. (Beckman L8-80M ultracentrifuge; spin at 37,500 rpm with rotor type 70 Ti for 50 mL tubes; 38,000 rpm with type 80Ti for 15 mL tubes; or 35,800 rpm with rotor type 45Ti). The supernantant is discarded and the pellet suspended in 3 to 4 mL of Tris buffer (50 mM TRIS-HCl, pH 7.4). The protein content is estimated by the Bradford or Lowry method. The volume of the membrane suspension is adjusted with the membrane buffer (50 mM Tris-HCl containing 0.1% BSA and 0.1 mM PMSF) to give 3.0 mg/mL (or as appropriate) of protein. The membranes are aliquoted and stored at −70° C. C. Radioligand Binding Assay: In wells of a 96-well format microtiter plate, is added 90, 110 or 130 μL (to make up a final volume of 200 μL) of assay buffer containing 50 mM of Tris-HCl (pH 7.4), […], 1 mg % aprotinin, 1 mg % leupeptin, 2 mg % 1,10-phenanthroline, 10 mg % trypsin inhibitor, and 0.1 mM PMSF. The inhibitors are added on the day of the experiment. […]", "units": {"inhibition at 0.1 µM": "%", "V2 % inhibition at 100 nM": "%"}, "values": [{"smiles": "Cc1ccccc1N1CCN(C(=O)c2ccc3n2Cc2ccccc2N(C(=O)c2ccc(C4CCCCC4)cc2)C3)CC1", "note": "[Example 27, [10-(4-Cyclohexyl-benzoyl)-10,11-dihydro-5H-pyrrolo[2,1-c][1,4]benzodiazepin-3-yl][4-(2-methylphenyl)-1-piperazinyl]-methanone]", "inhibition at 0.1 µM": 9}, {"smiles": "COc1ccc(NC(=O)c2ccc3n2Cc2ccccc2N(C(=O)c2ccc(C4CCCCC4)cc2)C3)cc1", "note": "[Example 29, 10-(4-Cyclohexyl-benzoyl)-10,11-dihydro-5H-pyrrolo[2,1-c][1,4]benzodiazepine-3-carboxylic acid (4-methoxy-phenyl)-amide]", "inhibition at 0.1 µM": 8}, {"smiles": "CN1CCCN(C(=O)c2ccc3n2Cc2ccccc2N(C(=O)c2ccc(C4CCCCC4)cc2)C3)CC1", "note": "[Example 30, [10-(4-Cyclohexyl-benzoyl)-10,11-dihydro-5H-pyrrolo[2,1-c][1,4]benzodiazepin-3-yl](4-methyl-[1,4]-diazepan-1-yl)-methanone]", "inhibition at 0.1 µM": 15}, {"smiles": "O=C(C(=O)N1CCC(N2CCCCC2)CC1)c1ccc2n1Cc1ccccc1N(C(=O)c1ccc(C3CCCCC3)cc1)C2", "note": "[Example 31, 1-[1.4′]Bipiperidinyl-1′-yl-2-[10-(4-cyclohexyl-benzoyl)-10,11-dihydro-5H-pyrrolo[2,1-c][1,4]benzodiazepin-3-yl]-ethane-1,2-dione]", "V2 % inhibition at 100 nM": 2}, {"smiles": "CN1CCN(C(=O)C(=O)c2ccc3n2Cc2ccccc2N(C(=O)c2ccc(C4CCCCC4)cc2)C3)CC1", "note": "[Example 32, 1-[10-(4-Cyclohexyl-benzoyl)-10,11-dihydro-5H-pyrrolo[2,1-c][1,4]benzodiazepin-3-yl]-2-(4-methyl-1-piperazin-1-yl)-1,2-ethane-1,2-dione]", "V2 % inhibition at 100 nM": 6}, {"smiles": "CN(C)CCCNC(=O)c1ccc2n1Cc1ccccc1N(C(=O)c1ccc(C3CCCCC3)cc1)C2", "note": "[Example 33, 10-(4-Cyclohexyl-benzoyl)-N-[3-(dimethylamino)propyl]-10,11-dihydro-5H-pyrrolo[2,1-c][1,4]benzodiazepine-3-carboxamide]", "inhibition at 0.1 µM": 14}, {"smiles": "CN(C)CCN(C)C(=O)c1ccc2n1Cc1ccccc1N(C(=O)c1ccc(C3CCCCC3)cc1)C2", "note": "[Example 34, 10-(4-Cyclohexyl-benzoyl)-N-[2-(dimethylamino)-ethyl]-N-methyl-10,11-dihydro-5H-pyrrolo[2,1-c][1,4]benzodiazepine-3-carboxamide]", "inhibition at 0.1 µM": 17}, {"smiles": "CN(C)CCCN(C)C(=O)c1ccc2n1Cc1ccccc1N(C(=O)c1ccc(C3CCCCC3)cc1)C2", "note": "[Example 35, 10-(4-Cyclohexyl-benzoyl)-N-[3-(dimethylamino)propyl]N-methyl-10,11-dihydro-5H-pyrrolo[2,1-c][1,4]benzodiazepine-3-carboxamide]", "inhibition at 0.1 µM": 16}, {"smiles": "O=C(NCCCn1ccnc1)c1ccc2n1Cc1ccccc1N(C(=O)c1ccc(C3CCCCC3)cc1)C2", "note": "[Example 36, 10-(4-Cyclohexyl-benzoyl)-N-[3-(1H-imidazol-1-yl)propyl]-10,11-dihydro-5H-pyrrolo[2,1-c][1,4]benzodiazepine-3-carboxamide]", "inhibition at 0.1 µM": 1}, {"smiles": "O=C(NCCN1CCCCC1)c1ccc2n1Cc1ccccc1N(C(=O)c1ccc(C3CCCCC3)cc1)C2", "note": "[Example 37, 10-(4-Cyclohexyl-benzoyl)-N-[2-(1-piperidinyl)ethyl]-10,11-dihydro-5H-pyrrolo[2,1-c][1,4]benzodiazepine-3-carboxamide]", "inhibition at 0.1 µM": 8}, {"smiles": "CN1CCCC1CCNC(=O)c1ccc2n1Cc1ccccc1N(C(=O)c1ccc(C3CCCCC3)cc1)C2", "note": "(stereo not drawn) [Example 38, 10-(4-Cyclohexyl-benzoyl)-N-[2-(1-methyl-2-pyrrolidinyl)ethyl]-10,11-dihydro-5H-pyrrolo[2,1-c][1,4]benzodiazepine-3-carboxamide]", "inhibition at 0.1 µM": 1}, {"smiles": "CN1CCC(N(C)C(=O)c2ccc3n2Cc2ccccc2N(C(=O)c2ccc(C4CCCCC4)cc2)C3)CC1", "note": "[Example 39, 10-(4-Cyclohexyl-benzoyl)-N-methyl-N-(1-methyl-4-piperidinyl)-10,11-dihydro-5H-pyrrolo[2,1-c][1,4]benzodiazepine-3-carboxamide]", "inhibition at 0.1 µM": 13}, {"smiles": "CN1CCC(N(C)C(=O)c2ccc3n2Cc2ccccc2N(C(=O)c2ccc(C4CCCCC4)cc2)C3)C1", "note": "(stereo not drawn) [Example 40, 10-(4-Cyclohexyl-benzoyl)-N-methyl-N-(1-methyl-3-pyrrolidinyl)-10,11-dihydro-5H-pyrrolo[2,1-c][1,4]benzodiazepine-3-carboxamide]", "inhibition at 0.1 µM": -3}, {"smiles": "CN(C)CCN1CCN(C(=O)c2ccc3n2Cc2ccccc2N(C(=O)c2ccc(C4CCCCC4)cc2)C3)CC1", "note": "[Example 41, [10-(4-Cyclohexyl-benzoyl)-10,11-dihydro-5H-pyrrolo[2,1-c][1,4]benzodiazepin-3-yl]{4-[2-(dimethylamino)ethyl]-1-piperazinyl}methanone]", "inhibition at 0.1 µM": 6}, {"smiles": "O=C(c1ccc2n1Cc1ccccc1N(C(=O)c1ccc(C3CCCCC3)cc1)C2)N1CCN(CCN2CCOCC2)CC1", "note": "[Example 42, [10(4-Cyclohexyl-benzoyl)-10,11-dihydro-5H-pyrrolo[2,1-c][1,4]benzodiazepin-3-yl]{4-[2-(4-morpholinyl)ethyl]-1-piperazinyl}methanone]", "inhibition at 0.1 µM": 4}, {"smiles": "C=CCN1CCN(C(=O)c2ccc3n2Cc2ccccc2N(C(=O)c2ccc(C4CCCCC4)cc2)C3)CC1", "note": "[Example 43, (4-Allyl-1-piperazinyl)[10-(4-cyclohexyl-benzoyl)-10,11-dihydro-5H-pyrrolo[2,1-c][1,4]benzodiazepin-3-yl]methanone]", "inhibition at 0.1 µM": 8}, {"smiles": "CC(C)N1CCN(C(=O)c2ccc3n2Cc2ccccc2N(C(=O)c2ccc(C4CCCCC4)cc2)C3)CC1", "note": "[Example 44, [10-(4-Cyclohexyl-benzoyl)-10,11-dihydro-5H-pyrrolo[2,1-c][1,4]benzodiazepin-3-yl](4-isopropyl-1-piperazinyl)methanone]", "inhibition at 0.1 µM": 1}, {"smiles": "CN(C)CCCN1CCN(C(=O)c2ccc3n2Cc2ccccc2N(C(=O)c2ccc(C4CCCCC4)cc2)C3)CC1", "note": "[Example 45, [10-(4-Cyclohexyl-benzoyl)-10,11-dihydro-5H-pyrrolo[2,1-c][1,4]benzodiazepin-3-yl]{4-[3-(dimethylamino)propyl]-1-piperazinyl}methanone]", "inhibition at 0.1 µM": 10}, {"smiles": "O=C(c1ccc(C2CCCCC2)cc1)N1Cc2ccc(C(=O)N3CCC[C@H]3CN3CCCC3)n2Cc2ccccc21", "note": "[Example 46, [10-(4-Cyclohexyl-benzoyl)-10,11-dihydro-5H-pyrrolo[2,1-c][1.4]benzodiazepin-3-yl][(2S)-2-(1-pyrrolidinylmethyl)pyrrolidinyl]methanone]", "V2 % inhibition at 100 nM": 14}, {"smiles": "CN(C)[C@@H]1CCN(C(=O)c2ccc3n2Cc2ccccc2N(C(=O)c2ccc(C4CCCCC4)cc2)C3)C1", "note": "[Example 47, [10-(4-Cyclohexyl-benzoyl)-10,11-dihydro-5H-pyrrolo[2,1-C][1,4]benzodiazepin-3-yl][(3R)-3-(dimethylamino)pyrrolidinyl]methanone]", "V2 % inhibition at 100 nM": 0}]}, {"molecular_target": "human V2 vasopressin receptor subtype (Homo sapiens, UniProt P30518)", "experiment": "Vasopressin binding in CHO cell membranes expressing human vasopressin V2 subtype receptors", "settings": "[3H]arginine vasopressin, value in parentheses", "description": "as §1, §2, §3, §4", "units": {"IC50": "nM"}, "values": [{"smiles": "O=C(c1ccc2n1Cc1ccccc1N(C(=O)c1ccc(C3CCCCC3)cc1)C2)N1CCN(c2ccccn2)CC1", "note": "[Example 28, [10-(4-Cyclohexyl-benzoyl)-10,11-dihydro-5H-pyrrolo[2,1-c][1,4]benzodiazepine 3-yl][4-(2-pyridinyl)-1-piperazinyl]-methanone]", "IC50": "> 1000"}]}]}
